Assay results as given in publication PMC12410356 (International Journal for Parasitology: Drugs and Drug …, 2025).
Read-outs that look alike come from different tables or passages of the source.

Key:
[1] = tested on: Reuber rat hepatoma (RH) cells; settings: ref Rufener et al., 2018, cited from earlier work
[2] = tested on: E. multilocularis metacestode vesicles; settings: PGI release after five days; ref Rufener et al., 2018; cited from earlier work
[3] = tested on: E. multilocularis GL cells; assay: Seahorse mito cell stress test, oxygen consumption rate; type: cell-based, Echinococcus multilocularis; settings: titration in GL cells
Protocol: To measure mitochondrial respiration in E. multilocularis GL cells, Seahorse “mito cell stress test” was performed according to the manual for Seahorse XFp Extracellular Flux Analyzer (Agilent Technologies, Basel, Switzerland) with some adaptations ([Gu et al., 2021]; [Rufener et al., 2018]). Seahorse XFp 8-well plates were hydrated and incubated together with Seahorse XF calibrant solution at 37 °C in a non-CO2 incubator overnight the day before the actual experiment. […] Oligomycin was used at a final concentration of 1.5 μM. […] The experiment was repeated three times independently with two technical replicates.

[4] = tested on: E. multilocularis metacestode vesicles; assay: Metacestode vesicle viability assay (ATP, CellTiter-Glo); type: cell-based, Echinococcus multilocularis; settings: for viability at 10 µM: Echinococcus multilocularis, 288 h; for effect on metacestode vesicle viability (in words): twelve days, cut-off viability ≤30 %
Protocol: Viability was assessed after 12 days using the same metacestode vesicles as for the PGI release assay. Triton X-100 was added to each well to a final concentration of 0.1 %. Subsequently the metacestode vesicles were broken mechanically and 50 μL of the supernatant was mixed with 50 μL of CellTiter-Glo® buffer (Promega, Dübendorf, Switzerland). Measurements were performed on a HIDEX Sense microplate reader.

[5] = tested on: E. multilocularis metacestode vesicles; assay: Phosphoglucose isomerase (PGI) release assay (damage-marker release) on metacestode vesicles; type: cell-based, Echinococcus multilocularis; settings: 10 μM; for PGI d5 (relative PGI release): 5 days; for PGI d12 (relative PGI release): 12 days; for activity in the PGI release assay (in words): twelve days, cut-off PGI release ≥20 %
[6] = tested on: E. multilocularis GL cells; assay: Germinal layer cell viability assay (CellTiter-Glo); type: cell-based, Echinococcus multilocularis; settings: for effect on GL cell viability (in words): 80 to 0.31 μM, 5 days; for IC50: Echinococcus multilocularis, 120 h, 5 days incubation, microaerobic, mean ± SD of three independent experiments
Protocol: The isolation of GL cells was conducted according to ([Kaethner et al., 2023]). Briefly, conditioned DMEM (cDMEM) was prepared prior to isolation. For the preparation of cDMEM, 1 × 10^6 RH cells and 10 × 10^6 RH cells incubated in DMEM supplemented with 10 % FBS, penicillin (100 U/mL), streptomycin (100 μg/mL) and tetracycline (5 μg/mL) for six or four days, respectively, at 37 °C under a humid, 5 % CO2 atmosphere. The supernatant of each was mixed 1:1 and sterile filtrated, resulting in cDMEM. Metacestode vesicles of at least 6 months of age were washed with PBS, incubated in distilled H2O for 2.5 min and subsequently mechanically disrupted. The resulting pellet was resuspended in 7 vol of pre-warmed 0.05 % Trypsin/0.02 % EDTA and incubated at 37 °C for 30 min. GL cells were extracted from the laminated layer by vigorous shaking followed by filtration through a 30 μm mesh (Sefar AG, Heiden, Switzerland) and separated from calcareous corpuscles by short centrifugation at 50×g for 30 s at RT. The isolated cells were centrifuged for 10 min at 600×g and RT and the pellet was resuspended in cDMEM. The cell suspension was diluted 1:100 in PBS to measure the OD600. An OD600 value of 0.1 of this dilution was defined as one arbitrary unit (AU) per μL of the undiluted cell suspension corresponding to 0.97 ± 0.11 μg of total protein for the GL cells as measured via Pierce™ bicinchoninic acid (BCA) Protein Assay Kit according to the manufacturer's protocol (Fisher Scientific AG, Reinach, Switzerland). 1′000 AU per 5 mL of cDMEM were cultured at 37 °C overnight under a humid nitrogen atmosphere. The next day, 2′000 AU of GL cells were combined and further cultured for 3 h at 37 °C under a humid nitrogen atmosphere before they were used for further experiments.
To assess effects of compounds on the cell viability of isolated E. multilocularis GL cells, the protocol was applied as previously described ([Kaethner et al., 2023]). In short, 15 AU of GL cells were distributed into each well of a black 384-well plate. Compounds dissolved in DMSO (alexidine, carbendazim, ESI-09, MMV1581545 and oxfendazole) were added to final concentrations ranging from 80 to 0.31 μM (1:2 serial dilution) and the cells were cultured for 5 days at 37 °C under a humid, microaerobic atmosphere (85 % N2, 10 % CO2, 5 % O2). DMSO with the respective concentration was used as a solvent control. Viability was measured using the CellTiter-Glo® kit. Luminescence was measured using a HIDEX Sense microplate reader. Measurements were done in quadruplicates and represented as relative viability of the DMSO controls. IC50 values were calculated in R applying the five parameter logistic model for three independent experiments ([Ritler et al., 2020]).

[7] = tested on: Reuber rat hepatoma (RH) cells; assay: Mammalian cell toxicity, resazurin assay; type: cell-based; settings: for toxicity against mammalian cell line (in words): RH cells counter-screen; for IC50: 5 days incubation, mean ± SD
Protocol: Mammalian cell toxicity on RH cells was measured as described in [Rufener et al. (2018)] with few alterations. Briefly, confluent (50′000 cells/well) and pre-confluent (5′000 cells/well) were seeded into 96-well plates in DMEM supplemented with 10 % FBS, penicillin (100 U/mL), streptomycin (100 μg/mL) and tetracycline (5 μg/mL) and incubated at 37 °C under a humid, 5 % CO2 atmosphere for 24 h and 5 h respectively. Alexidine, ESI-09 and MMV1581545 were added to final concentrations ranging from 120 to 0.49 μM (1:3 serial dilution) to each well and then cells were incubated at 37 °C under a humid, 5 % CO2 atmosphere for 5 days. To measure viability, the medium was removed, 180 μL of PBS was added to the cells and resazurin was added to each well to a final concentration of 10 mg/L. The cells were then allowed to process the resazurin at RT for 1 h. Fluorescence was measured on a HIDEX Sense microplate reader. Measurements were performed in triplicates and IC50 values were calculated in R using the three parameter Weibull type 1 model for three independent experiments ([Ritler et al., 2020]).

[8] = tested on: HUVEC cell line; set-up: method as in Mamouei et al., 2018; settings: at 15 μM; ref Mamouei et al., 2018; cited from earlier work
[9] = confluent, read-out: IC50 confluent RH cells
[10] = pre-confluent, read-out: IC50 pre-confluent RH cells
[11] = confirmation screen, 10 μM, triplicates, mean, 12 days, read-out: Viability d12 (relative viability)
[12] = overview screen, 10 μM, singlets, 12 days, relative to DMSO control, read-out: Viability d12 (relative viability)
[13] = confirmation screen, triplicates, mean
[14] = overview screen, singlets, relative to 0.1 % Triton X-100, DMSO subtracted
[15] = Rattus norvegicus, 120 h, confluent, read-out: IC50 confluent RH cells
[16] = Rattus norvegicus, 120 h, pre-confluent, read-out: IC50 pre-confluent RH cells
[17] = overview screen, 10 μM, singlets, 12 days, relative to DMSO control

Cc1[nH]c2cc(F)cc(F)c2c(=O)c1-c1ccc(Oc2ccc(OC(F)(F)F)cc2)cc1 [ELQ-400]
IC50 [1, 9]: 2.07 ± 1.67 µM | IC50 [1, 10]: 0.25 ± 0.11 µM | IC50 [2]: 20 ± 10 nM

N#CC(C#N)=NNc1ccc(OC(F)(F)F)cc1 [FCCP]
optimal (maximal) uncoupling concentration [3]: 0.4 µM

Cc1cc(O)c2c(c1)C(=O)c1c(I)c(C)c(I)c(O)c1C2=O [MMV1581545]
viability at 10 µM [4, 11]: 19.1% | viability at 10 µM [4, 12]: 16.4% | PGI d5 (relative PGI release) [5, 13]: 10.14% | PGI d12 (relative PGI release) [5, 13]: 30.09% | PGI d5 (relative PGI release) [5, 14]: 18.0887% | PGI d12 (relative PGI release) [5, 14]: 27.8991% | effect on GL cell viability (in words) [6]: highly effective | IC50 [6]: 7.89 ± 1.43 µM | toxicity against mammalian cell line (in words) [7]: moderate toxicity | IC50 [7, 15]: 21.3 ± 4.39 µM | IC50 [7, 16]: 13.8 ± 1.09 µM | IC50 [7, 10]: 14.7 ± 2.09 µM

CN(O)C(=O)c1cc2c(CN3CCC[C@H]3C(N)=O)cn(Cc3ccc(F)cc3)c2cn1 [MMV1782386]
Viability d12 (relative viability) [4, 17]: 103.448% | PGI d5 (relative PGI release) [5, 14]: 0.7573% | PGI d12 (relative PGI release) [5, 14]: -1.18%

COC(=O)Nc1nc2c(C)cccc2[nH]1 [MMV1782387]
Viability d12 (relative viability) [4, 17]: 91.1788% | PGI d5 (relative PGI release) [5, 14]: -0.1734% | PGI d12 (relative PGI release) [5, 14]: -20.8652%

CNc1nc(=O)[nH]cc1F [MMV1782388]
Viability d12 (relative viability) [4, 17]: 224.858% | PGI d5 (relative PGI release) [5, 14]: -3.006% | PGI d12 (relative PGI release) [5, 14]: -25.8676%

Cc1cc(C)n(O)c(=O)c1 [MMV1782389]
Viability d12 (relative viability) [4, 17]: 156.473% | PGI d5 (relative PGI release) [5, 14]: -2.677% | PGI d12 (relative PGI release) [5, 14]: -25.4049%

Cc1cc(C)n2nc(C(=O)NS(=O)(=O)c3c(C)cccc3OC(F)(F)F)nc2n1 [MMV1782402]
Viability d12 (relative viability) [4, 17]: 179.119% | PGI d5 (relative PGI release) [5, 14]: -1.59% | PGI d12 (relative PGI release) [5, 14]: 1.998%

CCNC(=O)Nc1cn2c(-c3ncc(CC)cn3)cc(-c3cccnc3)cc2n1 [MMV1782403]
Viability d12 (relative viability) [4, 17]: 142.751% | PGI d5 (relative PGI release) [5, 14]: -2.559% | PGI d12 (relative PGI release) [5, 14]: 16.0574%

O=S(=O)(NCB(O)O)c1ccc(-c2nnn[nH]2)cc1C(F)(F)F [MMV1782411]
Viability d12 (relative viability) [4, 17]: 79.3081% | PGI d5 (relative PGI release) [5, 14]: -0.527% | PGI d12 (relative PGI release) [5, 14]: -17.35%

NC(=O)C(c1ccccc1)(c1ccccc1)[C@H]1CCCN(CCc2ccc3c(c2)CCO3)C1 [MMV1782412]
Viability d12 (relative viability) [4, 17]: 220.792% | PGI d5 (relative PGI release) [5, 14]: 1.533% | PGI d12 (relative PGI release) [5, 14]: 2.087%

CCCCC(CC)CNC(=N)NC(=N)NCCCCCCNC(=N)NC(=N)NCC(CC)CCCC (stereo not shown) [alexidine, reference compound]
viability at 10 µM [4, 11]: 34.4 ± 0.9% | viability at 10 µM [4, 12]: 4.93% | toxicity in the HUVEC cell line (in words) [8]: severe toxicity | PGI d5 (relative PGI release) [5, 13]: 32.36% | PGI d12 (relative PGI release) [5, 13]: 76.1 ± 3.2% | PGI d12 (relative PGI release) ([5]; confirmation screen, triplicates, mean, listed as MMV396785): 76.16% | PGI d5 (relative PGI release) [5, 14]: 68.8052% | PGI d12 (relative PGI release) [5, 14]: 92.491% | effect on GL cell viability (in words) [6]: highly effective | IC50 [6]: 10.7 ± 1.13 µM | toxicity against mammalian cell line (in words) [7]: highly toxic | IC50 [7, 15]: 5.97 ± 4.89 µM | IC50 [7, 16]: 2.8 ± 1.33 µM

CC(C)(C)[C@H]1CC[C@H](CC2=C(O)C(=O)c3ccccc3C2=O)CC1 [buparvaquone]
IC50 [1, 9]: 17.4 ± 2.09 µM | IC50 [1, 10]: 8.47 ± 3.89 µM | IC50 [2]: 2870 ± 1450 nM

COC(=O)Nc1nc2ccccc2[nH]1 [carbendazim]
viability at 10 µM ([4]; read-out: Viability d12 (relative viability), confirmation screen, 10 μM, triplicates, mean, 12 days): 36.4% | viability at 10 µM ([4]; read-out: Viability d12 (relative viability), overview screen, 10 μM, singlets, 12 days, relative to DMSO control): 4.59% | PGI d5 (relative PGI release) [5, 13]: 5.10% | PGI d12 (relative PGI release) [5, 13]: 24.66% | PGI d5 (relative PGI release) [5, 14]: 6.336% | PGI d12 (relative PGI release) [5, 14]: 74.6935% | effect on GL cell viability (in words) [6]: did not reduce GL cell viability | effect on GL cell viability (in words) ([6]; listed as Carbendazim): not able to decrease GL cell viability

CC(=O)Oc1ccccc1C(=O)Nc1ncc([N+](=O)[O-])s1 [nitazoxanide, reference compound]
viability at 10 µM [4, 12]: 38.4% | effect on metacestode vesicle viability (in words) ([4]; overview screen, 10 μM): did not meet the threshold in the metacestode viability assay | effect on metacestode vesicle viability (in words) ([4]; overview screen, 10 μM, listed as MMV688991): did not reduce the metacestode vesicle viability | PGI d5 (relative PGI release) [5, 14]: 37.9028% | PGI d12 (relative PGI release) [5, 14]: 44.5196% | activity in the PGI release assay (in words) ([5]; overview screen): showed activity in the PGI release assay | activity in the PGI release assay (in words) ([5]; overview screen, listed as MMV688991): active in the PGI assay after twelve days

COC(=O)Nc1nc2ccc([S+]([O-])c3ccccc3)cc2[nH]1 (stereo not shown) [oxfendazole, reference compound]
viability at 10 µM [4, 11]: 30.6% | viability at 10 µM [4, 12]: 15.1% | PGI d5 (relative PGI release) [5, 13]: 5.40% | PGI d12 (relative PGI release) [5, 13]: 29.07% | PGI d5 (relative PGI release) [5, 14]: -1.521% | PGI d12 (relative PGI release) [5, 14]: 31.4286% | effect on GL cell viability (in words) [6]: not able to decrease GL cell viability | effect on GL cell viability (in words) ([6]; listed as Oxfendazole): did not reduce GL cell viability
